The source of these data is ChEMBL document CHEMBL1142366, “Synthesis of pyrimidine and quinolone conjugates as a scaffold for dual inhibitors of HIV reverse transcriptase and integrase” (Bioorg Med Chem Lett, 2008).

The nature of assay [1]: Inhibition of HIV reverse transcriptase. More on the design: species or system Human immunodeficiency virus.
Assay [2] is described as follows: Inhibition of HIV integrase. Further details: species or system Human immunodeficiency virus.
Assay [3] concerns Human immunodeficiency virus. In words: Antiviral activity against HIV by cell based assay. Format: functional, organism-based. As to conditions: Human immunodeficiency virus 1.

The pIC50 is the negative decadic logarithm of the IC50, by convention in mol/L. What is called pEC50 is the negative decadic logarithm of the EC50, by convention in mol/L.

pEC50, pIC50: −log10 of the molar value.

`CCn1cc(C(=O)O)c(=O)c2cc(COCn3c(Cc4ccccc4)c(C(C)C)c(=O)[nH]c3=O)ccc21`: the figures for the pIC50 in assay [1] and in assay [2] were 5.96 and 4.29, respectively. The same compound gave a pEC50 in assay [3] of 5.82.
Taken in the same sequence, the figures for `CC(C)c1c(Cc2ccccc2)n(COCc2ccc3c(c2)c(=O)c(C(=O)O)cn3C)c(=O)[nH]c1=O` were 5.59, 4.39 and 6.68.
The matching figures for `CC(C)c1c(Cc2ccccc2)n(COCc2ccc3c(c2)c(=O)c(C(=O)O)cn3CCO)c(=O)[nH]c1=O`: 5.43, 4.72 and 5.66.
For `CC(C)c1c(Cc2ccccc2)n(COCc2ccc3[nH]cc(C(=O)O)c(=O)c3c2)c(=O)[nH]c1=O`, the pIC50 in assay [1] is 6.72; in assay [2], 4.46. In assay [3], this compound had a pEC50 of 6.66.
